Each structure is given as a SMILES string.

The source of these data is patent US20240293344A1, “Unsaturated Hydroxamic Acid Derivatives and Their Use for the Treatment and Prevention of an Ammonia-Associated Disease or Disorder” (Versantis AG, priority 2021, published 2024).

Data set [1] has as its system Caco-2 cells. As to the kind of experiment: Cytotoxicity in Caco-2 cells (CCK-8). The conditions noted are these: 10 mM, 24 h.
Description: (§1) The compounds used were 2-octynoHA, OHA (Tokyo Chemical Industry Co., Ltd.; Japan) and AHA (Sigma-Aldrich, St. Louis, MO) The human colorectal adenocarcinoma cell line Caco-2 was obtained from American Type Culture Collection. The cells were cultured in complete medium containing DMEM (Dulbecco's modified Eagle's medium) high glucose, GlutaMax™, pyruvate (Thermo Fisher Scientific, Waltham, MA) supplemented with 10% fetal bovine serum (Thermo Fisher Scientific, Waltham, MA), 1% penicillin-streptomycin (Thermo Fisher Scientific, Waltham, MA) and 15 mM HEPES (Thermo Fisher Scientific, Waltham, MA). The cells were incubated at 37° C. in a humidified atmosphere with 5% CO2. Caco-2 cells were used in the experiments from passage 50 to 60 and were tested negative for mycoplasma.
(§2) The cytotoxicity of HAs was assessed using Cell Counting Kit-8 (CCK-8, Sigma-Aldrich, St. Louis, MO), a colorimetric assay based on tetrazolium salt WST-8 which is reduced by dehydrogenases in cells to an orange-colored formazan. The absorbance of formazan at 450 nm is directly proportional to the number of living cells.
(§3) In order to test cytotoxicity of HAs, Caco-2 cells were seeded in a 96-well plate at a density of 5×10^3 cell/well and grown for 1 day. Then, cells were treated with an increasing range of inhibitors' concentrations and incubated for another 24 h at 37° C., 5% CO2. […] After incubation, cells were washed with phosphate buffered saline (Thermo Fisher Scientific, Waltham, MA), treated with DMEM without phenol red (Thermo Fisher Scientific, Waltham, MA) containing CCK-8 reagent and incubated for another 2 h at 37° C. in a humidified atmosphere with 5% CO2. The absorbance of medium at 450 nm was measured using Tecan Infinite M200 PRO plate reader. Caco-2 cell viability was calculated as a percentage of the medium control.
Data set [2] concerns mixture of E. coli strains (wp2 [pKM101] and wp2 uvrA). The data set is described as follows: Ames test (Ames MPF Penta 1), E. coli strain mixture. The class given is cell-based. The following applies: with or without metabolic activation (S9).
Excerpt: A commercial microplate format test kit (Ames MPF™ Penta 1, Xenometrix, Switzerland) was used for this experiment. […] The mutagenicity of the three hydroxamic acids was investigated in four S. typhimurium strains (TA98, TA100, TA1535, TA1537) and in the mixture of two E. coli strains (wp2 [pKM101] and wp2 uvrA) with and without metabolic activation (S9 fraction) according to the manufacturer's protocol.
Data set [3] relates to S. typhimurium strains (TA98, TA100, TA1535, TA1537). The data set is described as follows: Ames test (Ames MPF Penta 1), S. typhimurium strains. The text has this:
A commercial microplate format test kit (Ames MPF™ Penta 1, Xenometrix, Switzerland) was used for this experiment. The most commonly used strains in the Ames tests, S. typhimurium with point mutations in the histidine operon and E. coli with mutations in the tryptophan operon were utilized as the model systems. The mutagenicity of the three hydroxamic acids was investigated in four S. typhimurium strains (TA98, TA100, TA1535, TA1537) and in the mixture of two E. coli strains (wp2 [pKM101] and wp2 uvrA) with and without metabolic activation (S9 fraction) according to the manufacturer's protocol.
Bacteria were exposed to 6 concentrations of the test compounds, solvent control (DMSO) and positive control substances (concentrations listed in Tables I-II below) for 90 min in the medium containing enough histidine for S. typhimurium or tryptophan for E. coli to support cell growth. After that, the cultures media were diluted with pH indicator solution lacking histidine or tryptophan and aliquoted into 48 wells of a 384-well plate. Within 48 hours, media containing cells that reverted to amino acid prototrophy turned yellow as bacteria metabolism reduced the pH of the media. The number of yellow wells containing revertant colonies was counted for each dose of the test compounds and compared to the solvent control.

The test system of data set [4] is bacterial urease. As to the kind of experiment: Rat caecum content assay (urease inhibitory activity, ammonia production from urea). The data set is classed as cell-based, bacteria of rat caecum content. The following applies: for IC50: rat caecum content with urea, 30 min at 37° C., pH 6.8, read-out: IC50, bacterial urease inhibitory activity. As for the experimental part:
To evaluate the inhibitory activity of HAs, the inventors first established an in vitro assay using rat caecum content.
The use of caecum content samples for the initial screening of urease inhibitors allowed to rapidly identify stable and membrane permeable inhibitors that cover a broad spectrum of bacterial ureases present in the gastrointestinal tract.
According to the herein established protocol, rat caecum content provided by the ETH Phenomics center was diluted in 200 mM potassium phosphate monobasic buffer pH 6.8 and centrifuged at 100×g to remove large particles. The supernatant with dispersed bacteria was collected, mixed with urea and then incubated with an increasing range of inhibitor concentrations for 30 min at 37° C. with constant shaking. In this setup initial concentrations of bacteria and urea were adjusted to the values that lead to the production of ammonia at a final concentration of approximately 1000 μM. Bacterial urease converts urea to ammonia, which was quantified by an enzymatic assay (Ammonia assay, Randox Laboratories, UK).
The established assay was then used to evaluate the potency of commercially available HAs as well as synthesized HAs of the present disclosure. As most of the tested HAs have low aqueous solubility, cyclodextrins were used to prepare water-soluble formulations of the compounds. In this study, a stock solution of acetohydroxamic acid (AHA) was prepared in DMSO, and stock solutions of octanohydroxamic acid (OHA) and 2-octynohydroxamic acid (2-octynoHA) were prepared by dissolving them in aqueous solutions of 2-hydroxypropyl-p-cyclodextrin (HPβCD) in 1:2 and 1:4 molar ratios, respectively. The obtained mixtures were sonicated and heated at 37° C. until fully dissolved.
Besides 2-octynoHA, the urease inhibitory activity of other unsaturated alkylated HAs consisting of 8 carbons was assessed. These included 2-octenohydroxamic acid (2-octenoHA), 3-octenohydroxamic acid (3-octenoHA), 3-octynohydroxamic acid (3-octynoHA) and 7-octynohydroxamic acid (7-octynoHA). Prior to assessing potency in the rat caecum content assay, stock solutions of 2-octenoHA and 3-octenoHA were prepared using HPβCD solution (1:4 molar ratio of HA to HPβCD), stock solutions of 3-octynoHA and 7-octynoHA were prepared using mixture of 10% DMSO and HPβCD solution. The 7-octynoHA presented a lower potency than unsaturated alkylated HAs having a double/triple bond at positions 2 or 3.

Data set [5] deals with Caco-2 cells. The conditions noted are these: human, 24 h.
Description: as §1, §2, §3
Data set [6] concerns N-Nitrosodiethylamine induced liver disease in rats. The data set is described as follows: In vivo efficacy in N-nitrosodiethylamine (DEN) induced liver disease in rats, blood ammonia. The following applies: 30 mg/kg suspension, gavage twice a day from day 3, n=10. More on the design: species or system rat. As for the experimental part: Efficacy of 2-octynoHA was assessed in male Sprague Dawley rats (Beijing Vital River Laboratory Animal Technology Co., Ltd, China) in a model of acute liver disease. The liver damage was induced by reoccurring intraperitoneal injections of N-nitrosodiethylamine (DEN) 60 mg/kg on days 1, 3, 5, and 7.
Four groups of rats were included. The first control group was treated with a solution of HPβCD 270 mg/kg (n=10). The second group was treated with a suspension of rifaximin 30 mg/kg (n=10). The third group was treated with a suspension of rifaximin 60 mg/kg (n=10). The fourth group was treated with 15 mg/kg of 2-octynoHA dissolved in HPβCD solution (1:1 molar ratio of 2-octynoHA to HPβCD) (n=10). All groups received the treatment via gavage twice a day from day 3 to day 8. Blood samples were collected sublingually on days 0, 6 and 8. Blood ammonia level was measured in collected samples using PocketChem™ (Arkray, Japan).

`OO` [hydrogen peroxide, reference compound]: the “Caco-2 cell viability (percentage of the medium control)” value in data set [1] turned out to be 1.79±6%.
What is called IC50 is the midpoint of a concentration-inhibition curve. Take `CCCCCCCC(=O)NO` [OHA, N-hydroxyoctanamide, reference compound]: the “mutagenicity (reverse mutations)” value is “not mutagenic” in data set [2] and “not mutagenic” in data set [3] (TA98, TA100, TA1535, TA1537, with or without metabolic activation (S9)). Moreover, in data set [1], the “Caco-2 cell viability (percentage of the medium control)” value is reported as “no live cells were observed”. Also, in data set [4], the IC50 is 0.23 mM.
Take `CC(=O)NO` [AHA, N-hydroxyacetamide]: the “mutagenicity (reverse mutations)” value in data set [3] (TA98, TA100 and TA1537 strains at 5 and 10 mM) is reported as “mutagenic potential was detected”. In addition, the IC50 in data set [4] is 7.3 mM. The “concentration up to which no cytotoxicity was detected” value in data set [5] is listed as “up to 10 mM”.
With `CO[C@H]1/C=C/O[C@@]2(C)Oc3c(C)c(O)c4c(O)c(c5c(nc6cc(C)ccn65)c4c3C2=O)NC(=O)/C(C)=C\C=C\[C@H](C)[C@H](O)[C@@H](C)[C@@H](O)[C@@H](C)[C@H](OC(C)=O)[C@@H]1C` [rifaximin, reference compound], in data set [6], the “blood ammonia level on day 6” value is 44 ± 22.4 µM.
Consider `C#CCCCCCC(=O)NO` [7-octynoHA, 7-octynohydroxamic acid], for which the “potency compared with unsaturated alkylated HAs having a double/triple bond at positions 2 or 3” value in data set [4] (rat caecum content assay, FIG. 6) is recorded as “lower potency”.
